From US20240139214A1, “AGENT FOR SUPPRESSING IL-31 PRODUCTION AND PHARMACEUTICAL COMPOSITION CONTAINING THE SAME” (KYUSHU UNIVERSITY, NATIONAL UNIVERSITY CORPORATION, priority 2021, published 2024)
Where two headings read alike, the source gives them in different places.

Columns and labels:
[1] = tested on: IL-4 gene (Il4); experiment: IL-4 gene expression in CD4+ T cells from Dock8−/− AND Tg mice (real-time PCR); assay type: cell-based, mouse; conditions: 2.5 μM; FIG. 2B
Protocol: (§1) Total RNA was isolated using ISOGEN (Nippon Gene Co., Ltd.). For amplification by PCR, RNA samples treated with RNase-free DNase I (Thermo Fisher Scientific) were reverse-transcribed with oligo(dT) primers (TFS) and SuperScript III reverse transcriptase (TFS). Real-time PCR was performed in a CFX Connect™ thermal cycler (BIO-RAD) using SYBR Green PCR Master Mix (Thermo Fisher Scientific). The expression of mouse and human target genes was normalized to expression of Hprt and PPIB genes, respectively. CFX Manager software (ver.3.1) supplied with the instrument was used for analysis.
(§2) CD4^+ T cells (3×10^5 cells) from Dock8^−/− AND Tg mice were cultured with T cell-depleted irradiated spleen cells (5×10^6 cells) containing a test compound (2.5 μM) or a vehicle alone (0.1% DMSO), in the presence of MCC88-103 (3 μg/ml) for 24 hours.

[2] = tested on: IL-2; experiment: IL-2 production by SEB-stimulated human CD4+ T cells of AD patients (AlphaLISA); assay type: cell-based; conditions: SEB stimulation; FIG. 9B
[3] = tested on: IL-2 gene (Il2); experiment: IL-2 gene expression in CD4+ T cells from Dock8−/− AND Tg mice (real-time PCR); assay type: cell-based, mouse; conditions: 2.5 μM; FIG. 2B
Protocol: as §1, §2

[4] = tested on: mouse IL-31 gene; experiment: IL-31 production inhibitory action: IL-31 gene expression by real-time PCR in antigen-stimulated CD4+ T cells from Dock8−/− AND Tg mice; assay type: cell-based; conditions: for antigen-induced IL-31 gene expression (in words): FIG. 2A
[5] = biological target: T1, EPAS1 (Mus musculus, UniProt P97481); experiment: Chromatin immunoprecipitation (ChIP) assay: recruitment of EPAS1 to the IL-31 gene promoter region in CD4+ T cells; assay type: cell-based; conditions: antigen stimulation, 2.5 μM; FIG. 8
T1 construct: endogenous in cells; host or cells: CD4+ T cells from Dock8-/- AND Tg mice, stimulated with MCC88-103
T1 sequence (P97481 whole entry): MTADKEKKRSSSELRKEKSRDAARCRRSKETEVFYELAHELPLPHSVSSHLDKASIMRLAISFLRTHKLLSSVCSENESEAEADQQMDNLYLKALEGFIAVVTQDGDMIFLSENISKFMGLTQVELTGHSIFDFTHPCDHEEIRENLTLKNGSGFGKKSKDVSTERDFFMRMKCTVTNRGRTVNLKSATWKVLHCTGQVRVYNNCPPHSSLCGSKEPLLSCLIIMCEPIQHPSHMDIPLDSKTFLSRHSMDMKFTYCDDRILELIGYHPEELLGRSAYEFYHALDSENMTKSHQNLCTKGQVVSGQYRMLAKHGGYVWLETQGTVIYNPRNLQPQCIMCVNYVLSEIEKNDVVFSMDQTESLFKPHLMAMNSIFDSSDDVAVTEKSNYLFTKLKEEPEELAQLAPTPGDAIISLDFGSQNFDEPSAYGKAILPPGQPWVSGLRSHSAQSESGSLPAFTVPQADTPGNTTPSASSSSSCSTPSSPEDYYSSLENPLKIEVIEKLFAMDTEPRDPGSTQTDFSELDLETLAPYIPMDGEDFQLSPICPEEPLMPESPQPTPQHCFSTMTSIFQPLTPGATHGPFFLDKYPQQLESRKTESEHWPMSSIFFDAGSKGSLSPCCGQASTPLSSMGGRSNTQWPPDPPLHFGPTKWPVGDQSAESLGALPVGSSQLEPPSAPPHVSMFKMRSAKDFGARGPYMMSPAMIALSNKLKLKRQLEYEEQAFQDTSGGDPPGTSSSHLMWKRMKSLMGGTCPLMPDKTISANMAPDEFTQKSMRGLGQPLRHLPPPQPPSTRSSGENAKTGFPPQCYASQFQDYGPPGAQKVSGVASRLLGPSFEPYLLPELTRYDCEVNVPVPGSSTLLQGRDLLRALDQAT
Protocol: A ChIP assay was performed using activated mouse CD4^+ T cells and immortalized MEFs. Briefly, CD4^+ T cells from Dock8^−/− AND Tg mice were stimulated with MCC88-103 in the presence of a test compound (2.5 μM) or a vehicle alone (0.1% DMSO) for 24 hours. Immortalized MEFs were co-transfected with pcDNA-human EPAS1 (2 μg) in the presence of pGL4.10 IL31 (2 μg). Six hours after transfection, the MEFs were suspended in 10% FCS-containing DMEM that contains a test compound (10 μM) or a vehicle alone (0.1% DMSO) for another 24 hours.
The activated mouse CD4^+ cells and the transfected MEFs were treated with 0.5% formaldehyde at room temperature for 5 minutes and then neutralized with glycine at room temperature for 5 minutes. The resulting cells were washed twice with PBS containing a protease inhibitor, and then nuclei were isolated using a Magna ChIP™ HiSens kit (Millipore, Burlington, MS) according to the manufacturer's protocol. […] After centrifugation at 10,000 g at 4° C. for 10 minutes, the sheared chromatin DNA was obtained and treated with RNase and proteinase K for quantifying DNA content. […]
Magnetic beads preincubated with rabbit polyclonal IgG (ab171870; Abcam) were used for control studies. […] Eluted DNA and input chromatin DNA were analyzed with a CFX Connect™ thermal cycler (BIO-RAD) using SYBR Green PCR Master Mix (Thermo Fisher Scientific) and the following primers. […]

[6] = tested on: IL-31; experiment: IL-31 production by SEB-stimulated human CD4+ T cells of AD patients (AlphaLISA); assay type: cell-based; conditions: SEB stimulation; FIG. 9A
[7] = tested on: CAG-OVA mice; experiment: Scratch behavior measurement in CAG-OVA mice injected with activated CD4+ T cells from Dock8−/− OTII Tg mice; assay type: in vivo; conditions: oral administration; FIG. 6
Protocol: Mice were put into an acrylic cage (11×14×20 cm) for at least 1 hour for acclimation, and their behaviors were videotaped. Playback of the video was used for determination of the total number of scratching bouts per 2 hours. When mice scratch, they stretch their hind paw toward the itchy spot, lean their head toward the hind paw, rapidly move the paw several times, and then lower it back to the floor. A series of these movements was counted as one bout of scratching.
To investigate whether compound 1 has an itch inhibitory action, mice expressing ovalbumin (OVA) under the control of the cytomegalovirus immediate early enhancer-chicken β-actin hybrid promoter (hereafter referred to as “CAG-OVA mice”) were used. Activated CD4^+ T cells (8.0×10^6 per mouse) from Dock8^−/− OTII Tg mice were stimulated with OVA323-339 (ISQAVHAAHAEINEAGR (SEQ ID NO: 2), 1 μg/ml) for 72 hours and intravenously injected into CAG-OVA mice, and the scratch behavior of the mice was measured 1 hour later. As a result, when the activated CD4^+ T cells were injected into CAG-OVA mice, scratch behavior was induced (see the results of the vehicle in FIG. 6).

[8] = tested on: human IL-31 gene promoter; experiment: Luciferase reporter assay of human IL-31 gene promoter in MEFs in the presence of human EPAS1; assay type: cell-based; conditions: reporter construct (−1,308 to −1) in MEFs
[9] = Single-dose toxicity study, oral administration; assay type: in vivo; conditions: 100-mg oral administration
Protocol: From these, it is determined that compound 1 is a highly safe compound with low cytotoxicity.

[10] = tested on: GLUT1 expression in human cancer cell line HT1080; experiment: Hypoxia-induced GLUT1 expression in HT1080; assay type: cell-based; conditions: HT1080, 1% O2; FIG. 7
Protocol: (§3) Human sarcoma cell line HT1080 was provided by Y. Matsumoto (Kyushu University). For hypoxic induction, HT1080 (3×10^5 cells) was cultured in 1% O2 for 12 hours before assays.
as §1
(§4) (1) Although EPAS1 is known to control hypoxic responses through complex formation with aryl hydrocarbon receptor nuclear translocator (ARNT) (NPL 6), EPAS1-mediated Il31 promoter activation is independent of ARNT (NPL 4). FM19G11 is not a direct inhibitor of EPAS1, but is known to suppress the expression of the EPAS1 gene (Epas1) by acting on an unidentified target (NPL 7). Treatment of human cancer cell line HT1080 with […] suppressed VEGFA expression and GLUT1 expression induced by hypoxia (FIG. 7).

[11] = tested on: CD4+ T cells; experiment: T cell proliferation assay (PMA and ionomycin, 3H-thymidine incorporation); assay type: cell-based, mouse; conditions: for effect on non-specific T cell proliferation induced by PMA and ionomycin: FIG. 4; for activity at 10 µM / activity at 20 µM / activity at 40 µM: Mus musculus, CD4+ T, 66 h, read-out: Cell proliferation (%): based on the case using 0.2% DMSO taken as 100%
Protocol: (§5) A T cell proliferation assay was performed by culturing CD4^+ T cells (5×10^4 cells) with T cell-depleted irradiated spleen cells (1×10^6 cells) in the presence of phorbol 12-myristate 13-acetate (PMA: 100 ng/ml; Sigma-Aldrich) and ionomycin (1 μg/ml; Sigma-Aldrich) for 66 hours. For the last 18 hours of culture, ^3H-thymidine (0.037 MBq) was added, and the incorporated radioactivity was measured with MicroBeta^2 (PerkinElmer, Inc., Waltham, MS).
as §5, with “hours. Test compounds were added at various final concentrations at the start of culture.” for “hours.”, “MS). […]” for “MS).”

[12] = Blood concentration after oral administration; assay type: in vivo; conditions: 100 mg orally, C57BL/6 mice, monitored 24 hours; FIG. 5
Protocol: After compound 1 (100 mg) was orally administered to C57BL/6 mice (n=3), its blood concentration was monitored for 24 hours.

[13] = tested on: VEGFA expression in human cancer cell line HT1080; experiment: Hypoxia-induced VEGFA expression in HT1080; assay type: cell-based; conditions: HT1080, 1% O2; FIG. 7
Protocol: as §3, §1, §4

[14] = Mus musculus, CD4+ T, 24 h, read-out: qPCR results (IL-31 production (%)): based on the case using 0.1% DMSO taken as 100%
[15] = Mus musculus, CD4+ T, 24 h, 0.156 μM, read-out: qPCR results (IL-31 production (%)): based on the case using 0.1% DMSO taken as 100%
[16] = Mus musculus, CD4+ T, 24 h, 0.312 μM, read-out: qPCR results (IL-31 production (%)): based on the case using 0.1% DMSO taken as 100%
[17] = Mus musculus, CD4+ T, 24 h, 0.625 μM, read-out: qPCR results (IL-31 production (%)): based on the case using 0.1% DMSO taken as 100%
[18] = Mus musculus, CD4+ T, 24 h, 1.25 μM, read-out: qPCR results (IL-31 production (%)): based on the case using 0.1% DMSO taken as 100%

| Structure (SMILES) | effect on expression of IL-4 gene [1] | effect on expression of IL-2 gene [3] | antigen-induced IL-31 gene expression (in words) ([4]; 2.5 μM) | GLUT1 expression induced by hypoxia [10] | effect on non-specific T cell proliferation induced by PMA and ionomycin [11] | VEGFA expression induced by hypoxia [13] | activity at 0.156 µM [4, 15] [%] | activity at 0.312 µM [4, 16] [%] | activity at 0.625 µM [4, 17] [%] | activity at 1.25 µM [4, 18] [%] | activity at 10 µM [11] [%] | activity at 20 µM [11] [%] | activity at 40 µM [11] [%] | further results |
| --- | --- | --- | --- | --- | --- | --- | --- | --- | --- | --- | --- | --- | --- | --- |
| CC(C)c1ccc(/C=N/Nc2ccc(C(=O)O)cc2)cc1 [Compound 1, 4-(2-(4-Isopropylbenzylidene)hydrazinyl)benzoic Acid] | neither of these compounds had an effect | neither of these compounds had an effect | significantly inhibited | did not show such an effect of suppressing expression | neither of these compounds had an adverse effect | did not show such an effect of suppressing expression | – | – | – | – | – | – | – | IL-2 production by CD4+ T cells of AD patients [2]: not affected; activity at 0.078 µM [4, 14]: 57.5%; activity at 0.156 µM [4, 14]: 40.1%; activity at 0.312 µM [4, 14]: 38.7%; activity at 0.625 µM [4, 14]: 23.9%; activity at 1.25 µM [4, 14]: 16.4%; recruitment of EPAS1 to the IL-31 gene promoter region (−1336 to −1042) [5]: greatly reduced; IL-31 production by CD4+ T cells of AD patients [6]: reduced IL-31 production in a dose-dependent manner; scratch behavior (number of scratching bouts during 2 hours) [7]: significantly suppressed; activation of the human IL-31 gene promoter [8]: significantly suppressed; body weight gain versus non-treated group [9]: did not differ from the non-treated group; histological or biochemical abnormalities [9]: no histological or biochemical abnormalities; effect on non-specific T-cell proliferation response in vitro ([11]; even when used at 50 μM): did not affect; time after oral administration within which compound was eluted into the blood [12]: ≤ 12 h |
| O=C(O)c1ccc(-c2nnc(-c3cc(C(F)(F)F)ccc3Cl)o2)cc1 [Compound 32, 4-(5-(2-Chloro-5-(trifluoromethyl)phenyl)-1,3,4-oxadiazol-2-yl)benzoic Acid] | – | – | – | – | – | – | 35.5 | 52.1 | 39.9 | 53.5 | 115 | 92.7 | 91.8 | – |
| O=C(O)c1ccc(-c2nc(-c3cc(C(F)(F)F)ccc3Cl)no2)cc1 [Compound 33, 4-(3-(2-Chloro-5-(trifluoromethyl)phenyl)-1,2,4-oxadiazol-5-yl)benzoic Acid] | – | – | – | – | – | – | 48.9 | 37.9 | 25.1 | 28 | 73.5 | 66.7 | 64.3 | activity at 0.078 µM ([4]; Mus musculus, CD4+ T, 24 h, 0.078 μM, read-out: qPCR results (IL-31 production (%)): based on the case using 0.1% DMSO taken as 100%): 57.7%; activity at 2.5 µM ([4]; Mus musculus, CD4+ T, 24 h, 2.5 μM, read-out: qPCR results (IL-31 production (%)): based on the case using 0.1% DMSO taken as 100%): 29.7% |
| CC(C)c1ccc(C(=O)Nc2nnc(-c3ccc(C(=O)O)cc3)s2)cc1 [Compound 34, 4-(5-(4-Isopropylbenzamido)-1,3,4-thiadiazol-2-yl)benzoic Acid] | – | – | – | – | – | – | – | – | 48.3 | 52.3 | 79 | 90.8 | 87.8 | – |
| Cc1ccc(C(=O)COC(=O)c2cccc(NC(=O)c3ccc([N+](=O)[O-])cc3[N+](=O)[O-])c2)cc1 [FM419G11, reference compound] | – | – | – | suppressed | – | suppressed | – | – | – | – | – | – | – | – |
| CN(C)CCOc1ccc(/C=N/Nc2ccc(C(=O)O)cc2)cc1 [Negative control compound 1, 4-(2-(4-(2-(Dimethylamino)ethoxy)benzylidene)hydrazineyl)benzoic Acid, reference compound] | neither of these compounds had an effect | neither of these compounds had an effect | not inhibited | – | neither of these compounds had an adverse effect | – | – | – | – | – | – | – | – | IL-31 production inhibitory action (in words, discussion of Table 1) ([4]; relative to compound 1): tended to notably decrease |
